Experimental data from PubChem BioAssay AID1963425 (Molecular Pharmacology Branch, DTP, NCI, 2024).

Test system: 323965-272-R-J2-PDC complex spheroid growth, % test/control
Experiment: Anticancer human tumor 323965-272-R-J2-PDC patient-derived pancreatic carcinoma cell line growth inhibition [Asc]
Conditions: for IC50: curve of first compound; for viability, T/C: stronger effect = lower value
How it was run: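 Complex spheroids combining tumor cells with HUVEC endothelial cells and human MSCs, at 37 degrees C, 5% CO2; agents tested alone or combined, half-log dilutions from at or near clinical Cmax, or 10 microM if Cmax unknown.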
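Note: compound exposure lasted 7 days starting three days after spheroid seeding.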
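Throughout, for viability, T/C: 100% = DMSO vehicle control wells with viability set relative to vehicle.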

Q: For `NC(=O)C(=Cn1cnc(-c2cc(C(F)(F)F)cc(C(F)(F)F)c2)n1)c1cncnc1` + CCN1C(C(=O)NC23CCC(C(=O)O)(CC2)CC3)C(c2cccc(Cl)c2F)C2(C(=O)Nc3cc(Cl)ccc32)C12CCCCC2, which IC50 (second compound 0.00949 µM) is on record?
A: The IC50 was over 0.3 µM.

Q: And the IC50 (second compound 0.03 µM)?
A: The IC50 was over 0.3 µM.

Q: And the IC50 (second compound 0.0949 µM)?
A: Its IC50 is over 0.3 µM.

Q: What about the IC50 (second compound 0.3 µM) of the same compound?
A: The IC50 was over 0.3 µM.

Q: And the IC50 (second compound 0.949 µM)?
A: The IC50 was over 0.3 µM.

Q: And the IC50 (second compound 3 µM)?
A: The IC50 was over 0.3 µM.

Q: What about the viability, T/C (second compound 0.00949 µM, first compound 0.000949 µM) of the same compound?
A: The viability, T/C was 108%.

Q: And the viability, T/C (second compound 0.00949 µM, first compound 0.003 µM)?
A: Its viability, T/C is 100%.

Q: What about the viability, T/C (second compound 0.00949 µM, first compound 0.00949 µM) of the same compound?
A: Its viability, T/C is 98%.

Q: And the viability, T/C (second compound 0.00949 µM, first compound 0.03 µM)?
A: The viability, T/C was 105%.

Q: What about the viability, T/C (second compound 0.00949 µM, first compound 0.0949 µM) of the same compound?
A: Its viability, T/C is 86.3%.

Q: And the viability, T/C (second compound 0.00949 µM, first compound 0.3 µM)?
A: The viability, T/C was 57.9%.

Q: And the viability, T/C (second compound 0.03 µM, first compound 0.000949 µM)?
A: Its viability, T/C is 109%.

Q: What about the viability, T/C (second compound 0.03 µM, first compound 0.003 µM) of the same compound?
A: The viability, T/C was 105%.

Q: What about the viability, T/C (second compound 0.03 µM, first compound 0.00949 µM) of the same compound?
A: Its viability, T/C is 96.8%.

Q: And the viability, T/C (second compound 0.03 µM, first compound 0.03 µM)?
A: The viability, T/C was 99.8%.

Q: And the viability, T/C (second compound 0.03 µM, first compound 0.0949 µM)?
A: The viability, T/C was 90%.

Q: What about the viability, T/C (second compound 0.03 µM, first compound 0.3 µM) of the same compound?
A: The viability, T/C was 68%.

Q: What about the viability, T/C (second compound 0.0949 µM, first compound 0.000949 µM) of the same compound?
A: Its viability, T/C is 111%.

Q: What about the viability, T/C (second compound 0.0949 µM, first compound 0.003 µM) of the same compound?
A: Its viability, T/C is 101%.

Q: And the viability, T/C (second compound 0.0949 µM, first compound 0.00949 µM)?
A: Its viability, T/C is 109%.

Q: And the viability, T/C (second compound 0.0949 µM, first compound 0.03 µM)?
A: Its viability, T/C is 100%.

Q: What about the viability, T/C (second compound 0.0949 µM, first compound 0.0949 µM) of the same compound?
A: Its viability, T/C is 91.7%.

Q: What about the viability, T/C (second compound 0.0949 µM, first compound 0.3 µM) of the same compound?
A: Its viability, T/C is 55.5%.

Q: What about the viability, T/C (second compound 0.3 µM, first compound 0.000949 µM) of the same compound?
A: The viability, T/C was 101%.

Q: And the viability, T/C (second compound 0.3 µM, first compound 0.003 µM)?
A: Its viability, T/C is 103%.

Q: What about the viability, T/C (second compound 0.3 µM, first compound 0.00949 µM) of the same compound?
A: Its viability, T/C is 101%.

Q: What about the viability, T/C (second compound 0.3 µM, first compound 0.03 µM) of the same compound?
A: Its viability, T/C is 99%.

Q: What about the viability, T/C (second compound 0.3 µM, first compound 0.0949 µM) of the same compound?
A: The viability, T/C was 88.7%.

Q: And the viability, T/C (second compound 0.3 µM, first compound 0.3 µM)?
A: Its viability, T/C is 55.2%.

Q: And the viability, T/C (second compound 0.949 µM, first compound 0.000949 µM)?
A: Its viability, T/C is 103%.

Q: What about the viability, T/C (second compound 0.949 µM, first compound 0.003 µM) of the same compound?
A: Its viability, T/C is 93.9%.

Q: What about the viability, T/C (second compound 0.949 µM, first compound 0.00949 µM) of the same compound?
A: Its viability, T/C is 84.3%.

Q: What about the viability, T/C (second compound 0.949 µM, first compound 0.03 µM) of the same compound?
A: Its viability, T/C is 87.7%.

Q: What about the viability, T/C (second compound 0.949 µM, first compound 0.0949 µM) of the same compound?
A: Its viability, T/C is 85.7%.

Q: And the viability, T/C (second compound 0.949 µM, first compound 0.3 µM)?
A: Its viability, T/C is 53.6%.

Q: And the viability, T/C (second compound 3 µM, first compound 0.000949 µM)?
A: Its viability, T/C is 94%.

Q: What about the viability, T/C (second compound 3 µM, first compound 0.003 µM) of the same compound?
A: The viability, T/C was 101%.

Q: What about the viability, T/C (second compound 3 µM, first compound 0.00949 µM) of the same compound?
A: Its viability, T/C is 89.5%.

Q: And the viability, T/C (second compound 3 µM, first compound 0.03 µM)?
A: The viability, T/C was 85.2%.

Q: What about the viability, T/C (second compound 3 µM, first compound 0.0949 µM) of the same compound?
A: The viability, T/C was 82.3%.

Q: What about the viability, T/C (second compound 3 µM, first compound 0.3 µM) of the same compound?
A: The viability, T/C was 53%.

Q: With `NC1CCC(NC2CC2c2ccccc2)CC1` (centres undefined) + CCN1C(C(=O)NC23CCC(C(=O)O)(CC2)CC3)C(c2cccc(Cl)c2F)C2(C(=O)Nc3cc(Cl)ccc32)C12CCCCC2 as the compound, how does the IC50 (second compound 0.00949 µM) read?
A: The IC50 was over 0.1 µM.

Q: And the IC50 (second compound 0.03 µM)?
A: The IC50 was over 0.1 µM.

Q: And the IC50 (second compound 0.0949 µM)?
A: Its IC50 is over 0.1 µM.

Q: What about the IC50 (second compound 0.3 µM) of the same compound?
A: Its IC50 is over 0.1 µM.

Q: And the IC50 (second compound 0.949 µM)?
A: Its IC50 is over 0.1 µM.

Q: What about the IC50 (second compound 3 µM) of the same compound?
A: Its IC50 is over 0.1 µM.

Q: And the viability, T/C (second compound 0.00949 µM, first compound 0.000316 µM)?
A: The viability, T/C was 98.9%.

Q: And the viability, T/C (second compound 0.00949 µM, first compound 0.001 µM)?
A: The viability, T/C was 94.2%.

Q: And the viability, T/C (second compound 0.00949 µM, first compound 0.00316 µM)?
A: The viability, T/C was 94.8%.

Q: What about the viability, T/C (second compound 0.00949 µM, first compound 0.01 µM) of the same compound?
A: Its viability, T/C is 97.5%.

Q: And the viability, T/C (second compound 0.00949 µM, first compound 0.0316 µM)?
A: Its viability, T/C is 98.2%.

Q: What about the viability, T/C (second compound 0.00949 µM, first compound 0.1 µM) of the same compound?
A: The viability, T/C was 88.2%.

Q: What about the viability, T/C (second compound 0.03 µM, first compound 0.000316 µM) of the same compound?
A: The viability, T/C was 97.3%.

Q: And the viability, T/C (second compound 0.03 µM, first compound 0.001 µM)?
A: The viability, T/C was 99.5%.

Q: What about the viability, T/C (second compound 0.03 µM, first compound 0.00316 µM) of the same compound?
A: Its viability, T/C is 103%.

Q: And the viability, T/C (second compound 0.03 µM, first compound 0.01 µM)?
A: Its viability, T/C is 102%.

Q: And the viability, T/C (second compound 0.03 µM, first compound 0.0316 µM)?
A: The viability, T/C was 97.9%.

Q: And the viability, T/C (second compound 0.03 µM, first compound 0.1 µM)?
A: Its viability, T/C is 92.8%.

Q: What about the viability, T/C (second compound 0.0949 µM, first compound 0.000316 µM) of the same compound?
A: The viability, T/C was 116%.

Q: What about the viability, T/C (second compound 0.0949 µM, first compound 0.001 µM) of the same compound?
A: Its viability, T/C is 91%.

Q: And the viability, T/C (second compound 0.0949 µM, first compound 0.00316 µM)?
A: The viability, T/C was 104%.

Q: What about the viability, T/C (second compound 0.0949 µM, first compound 0.01 µM) of the same compound?
A: Its viability, T/C is 99.9%.

Q: What about the viability, T/C (second compound 0.0949 µM, first compound 0.0316 µM) of the same compound?
A: The viability, T/C was 101%.

Q: And the viability, T/C (second compound 0.0949 µM, first compound 0.1 µM)?
A: Its viability, T/C is 88.9%.

Q: What about the viability, T/C (second compound 0.3 µM, first compound 0.000316 µM) of the same compound?
A: The viability, T/C was 99.6%.

Q: What about the viability, T/C (second compound 0.3 µM, first compound 0.001 µM) of the same compound?
A: The viability, T/C was 94.2%.

Q: What about the viability, T/C (second compound 0.3 µM, first compound 0.00316 µM) of the same compound?
A: The viability, T/C was 101%.

Q: What about the viability, T/C (second compound 0.3 µM, first compound 0.01 µM) of the same compound?
A: Its viability, T/C is 96.8%.

Q: What about the viability, T/C (second compound 0.3 µM, first compound 0.0316 µM) of the same compound?
A: The viability, T/C was 99.7%.

Q: What about the viability, T/C (second compound 0.3 µM, first compound 0.1 µM) of the same compound?
A: The viability, T/C was 88.3%.

Q: What about the viability, T/C (second compound 0.949 µM, first compound 0.000316 µM) of the same compound?
A: The viability, T/C was 102%.

Q: What about the viability, T/C (second compound 0.949 µM, first compound 0.001 µM) of the same compound?
A: Its viability, T/C is 95.5%.

Q: What about the viability, T/C (second compound 0.949 µM, first compound 0.00316 µM) of the same compound?
A: The viability, T/C was 94.8%.

Q: And the viability, T/C (second compound 0.949 µM, first compound 0.01 µM)?
A: Its viability, T/C is 92.5%.

Q: What about the viability, T/C (second compound 0.949 µM, first compound 0.0316 µM) of the same compound?
A: The viability, T/C was 106%.

Q: What about the viability, T/C (second compound 0.949 µM, first compound 0.1 µM) of the same compound?
A: Its viability, T/C is 96%.

Q: And the viability, T/C (second compound 3 µM, first compound 0.000316 µM)?
A: The viability, T/C was 98.6%.

Q: And the viability, T/C (second compound 3 µM, first compound 0.001 µM)?
A: The viability, T/C was 88.3%.

Q: What about the viability, T/C (second compound 3 µM, first compound 0.00316 µM) of the same compound?
A: Its viability, T/C is 90.2%.

Q: And the viability, T/C (second compound 3 µM, first compound 0.01 µM)?
A: The viability, T/C was 97.2%.

Q: And the viability, T/C (second compound 3 µM, first compound 0.0316 µM)?
A: Its viability, T/C is 96.4%.

Q: And the viability, T/C (second compound 3 µM, first compound 0.1 µM)?
A: Its viability, T/C is 87.7%.
